Data: article PMC7827417, “Steroid Glycosides Hyrcanoside and Deglucohyrcanoside: On Isolation, Structural Identification, and Anticancer Activity” (Foods, 2021)

Assays:
CCRF-CEM = test: MTS cytotoxic assay, CCRF-CEM; format: cell-based; settings: Homo sapiens, 72 h
From the text: (§1) If not indicated otherwise, the cell lines were purchased from the American Type Culture Collection (ATCC). […] K562 is the erythroid-myeloid precursor cell line derived from chronic myeloid leukemia carrying the BCR-ABL hybrid gene. A549, MCF-7, PC-3, 5637, U-2 OS, and MiaPaCa-2 are cells derived from lung, breast, prostate, bladder carcinoma, osteosarcoma, and pancreatic adenocarcinoma, respectively. HEK 293T are transformed human embryonic kidney cells, and L929 (Sigma, St. Louis, MS, USA) are transformed mouse fibroblasts. HCT116, cells from colorectal carcinoma, and their p53 gene knock-out variant (HCT116p53-/-) were purchased from Horizon Discovery. This cell line is a model of human tumors bearing p53 loss-of-function mutations or biallelic deletion of the p53 gene, frequently associated with poor prognosis. The MRC-5 and BJ cells were used as noncancerous cells; more specifically, they are human fibroblasts from the lungs and foreskin, respectively. According to the supplier’s recommendations, all cells were cultured at 37 °C in a 5% CO2 atmosphere and 100% humidity. The culture media used were: DMEM, RPMI 1640, and MEM (according to a cell line); all were supplemented with 5 g L^−1 glucose, 10% fetal calf serum, 2 mM glutamine, 100 U mL^−1 penicillin, 100 µg mL^−1 streptomycin, and NaHCO3. Cells were passaged every two or three days using 0.25% trypsin plus 0.01% EDTA (ethylenediamine tetraacetic acid) in phosphate-buffered saline.
(§2) To evaluate compound cytotoxicity, cells were seeded in 384-well microtiter plates in a volume of […]. The next day, aliquots of the tested derivatives were transferred with Echo550 acoustic liquid handler (Labcyte) to obtain dose response curves with dilution factor 4. The experiments were performed in technical duplicates and three or more biological replicates. After 72 h of incubation in a humidified incubator, […] of the MTS/PMS stock solution were pipetted into each well. After another 1–4 h of incubation, the absorbance at 490 nm was measured using an EnVision Multilabel Plate Reader (PerkinElmer).

A549 = test: MTS cytotoxic assay, A549; format: cell-based; settings: Homo sapiens, A549, 72 h
From the text: as §1, §2

HCT116 = test: MTS cytotoxic assay, HCT116; format: cell-based; settings: Homo sapiens, HCT-116, 72 h
From the text: as §1, §2

MiaPaCa-2 = test: MTS cytotoxic assay, MiaPaCa-2; format: cell-based; settings: Homo sapiens, MIA PaCa-2, 72 h
From the text: as §1, §2

MCF-7 = test: MTS cytotoxic assay, MCF-7; format: cell-based; settings: Homo sapiens, MCF7, 72 h
From the text: as §1, §2

U-2 OS = test: MTS cytotoxic assay, U-2 OS; format: cell-based; settings: Homo sapiens, U2OS, 72 h
From the text: as §1, §2

5637 = test: MTS cytotoxic assay, 5637; format: cell-based; settings: Homo sapiens, 72 h
From the text: as §1, §2

PC-3 = test: MTS cytotoxic assay, PC-3; format: cell-based; settings: Homo sapiens, PC-3, 72 h
From the text: as §1, §2

HEK 293T = test: MTS cytotoxic assay, HEK 293T; format: cell-based; settings: Homo sapiens, HEK-293T, 72 h
From the text: as §1, §2

MRC-5 = test: MTS cytotoxic assay, MRC-5; format: cell-based; settings: Homo sapiens, MRC5, 72 h
From the text: as §1, §2

L929 = test: MTS cytotoxic assay, L929; format: cell-based, mouse; settings: Mus musculus, L929, 72 h
From the text: as §1, §2

CCRF-CEM cells [1] = test: Cell cycle arrest and cell death analysis by flow cytometry (propidium iodide, pH3Ser10); format: cell-based, human; settings: % of positive cells
Method: Together with the CG-treated cells, a vehicle-treated sample was harvested at the same time point. After 24 h, the cells were washed with cold phosphate-buffered saline, fixed dropwise in 70% ethanol, and stored overnight at −20 °C. The cells were then washed with hypotonic citrate buffer, treated with RNAse (50 µg mL^−1), and stained with propidium iodide. Flow cytometry using a 488 nm laser (FACS-Calibur, Becton Dickinson, NJ, USA) was used for measurement. The cell cycle was analyzed by the ModFitLT program (Verity), and apoptosis was measured in a logarithmic model expressing the percentage of particles with a lower propidium content than cells in the G0/G1 phase (<G1) of the cell cycle in the CellQuest program (Becton Dickinson). Half of the sample was used to label cells with pH3^Ser10-FITC antibody (Exbio) for subsequent flow cytometry analysis of mitotic cells.

CCRF-CEM cells [2] = test: BrDU incorporation analysis (DNA synthesis); format: cell-based, human; settings: % of positive cells
Method: The cells were cultured in the same way as the cell cycle analysis method. Just before harvesting, 5-bromo-2′-deoxyuridine (BrDU) of 10 µM concentration was added to the cells for pulse-labeling for 30 min. Then, the cells were fixed with −20 °C cold 70% ethanol and stored in a freezer for 16 h. Before antibody staining, the samples were incubated on ice for 30 min, washed once with phosphate-buffered saline (PBS), and re-suspended in 2 M of HCl for 30 min at room temperature to hydrolyze their DNA. After neutralization with 0.1 M of Na2B4O7 (borax) solution, the cells were washed with PBS containing 0.5% Tween-20 and 1% BSA. This was followed by staining with the primary anti-BrDU antibody (Exbio) for 30 min at room temperature. Then, the cells were washed with PBS and stained with a secondary anti-mouse antibody conjugated to fluorescein isothiocyanate (Merck-Sigma, St. Louis, MS, USA) at room temperature in the dark. After another washing with PBS and incubation with propidium iodide (0.1 mg·mL^−1) and RNAse A (0.5 mg·mL^−1) for 1 h at room temperature in the dark, the cells were analyzed by flow cytometry using a 488 nm laser (FACSCalibur, Becton Dickinson, Franklin Lakes, NJ, USA).

CCRF-CEM cells [3] = test: BrU incorporation analysis (RNA synthesis); format: cell-based, human; settings: % of positive cells
Method: The cells were cultured and processed as described above. Before harvesting, the cells were pulse-labeled with 1 mM of 5-bromouridine (BrU) for 30 min. The cells were then fixed in 1% buffered paraformaldehyde with 0.05% NP-40 at room temperature for 15 min, and then stored at 4 °C overnight. Before measurement, they were washed with 1% glycine in PBS, washed again with PBS, and stained with primary anti-BrdU antibody cross-reactive to BrU (Exbio) for 30 min at room temperature in the dark. From this point on, the experiment was performed exactly as in the method described above.

## C[C@H]1O[C@@H](O[C@H]2[C@@H](O)C[C@H](O[C@H]3[C@@H](O)C[C@H](O[C@H]4CC[C@@]5(C)[C@H](CC[C@@H]6[C@@H]5CC[C@]5(C)[C@@H](C7=CC(=O)OC7)CC[C@]65O)C4)O[C@@H]3C)O[C@@H]2C)C[C@H](O)[C@@H]1O [Dg, digitoxin]
CCRF-CEM
  IC50: 20 ± 3.5 nM
A549
  IC50: 19 ± 2 nM
HCT116
  IC50: 20 ± 1.5 nM
MiaPaCa-2
  IC50: 79 ± 2.8 nM
MCF-7
  IC50: 78 ± 1.1 nM
U-2 OS
  IC50: 45 ± 2.1 nM
5637
  IC50: 58 ± 1.6 nM
PC-3
  IC50: 69 ± 2.2 nM
HEK 293T
  IC50: 69 ± 2.1 nM
MRC-5
  IC50: 78 ± 1.9 nM
L929
  IC50: > 10000 nM
CCRF-CEM cells [1]; 1 × IC50, 24 h
  < G1 (apoptotic cells): 7.56%
  G0/G1: 33.21%
  G2/M: 30.51%
  M (Phospho-Histone3 (Ser10)): 1.97%
  S: 36.28%
CCRF-CEM cells [1]; 5 × IC50, 24 h
  < G1 (apoptotic cells): 10.35%
  G0/G1: 33.71%
  G2/M: 44.03%
  M (Phospho-Histone3 (Ser10)): 1.28%
  S: 22.26%
CCRF-CEM cells [2]; 1 × IC50, 24 h
  BrDU: 35.91%
CCRF-CEM cells [2]; 5 × IC50, 24 h
  BrDU: 23.52%
CCRF-CEM cells [3]; 1 × IC50, 24 h
  BrU: 42.99%
CCRF-CEM cells [3]; 5 × IC50, 24 h
  BrU: 3.88%
